PubChem BioAssay AID686975 (The Scripps Research Institute Molecular Screening Center, 2013)
Active and inactive are the calls of the source. How the calls were made is not given here.

Tests used:
[1] = biological target: Heat shock protein HSP 90-alpha (Homo sapiens) (UniProt P07900); assay: heat shock protein up-regulation by compounds – cell-based, Western blot, chemiluminescence, late-stage follow-up (AID 686975); conditions: cells, western blot Hsp70/Hsp90 up-regulation, hits give high values
HSP70 = assay: as above; conditions: cells, western blot Hsp70/Hsp90 up-regulation, hits give high values

## CC(=O)c1ccc(NC(=O)c2coc(=O)c(Br)c2)cc1
[1]; HSP90, high dose (five times the IC50) 53.5 µM, low dose (half the IC50) 5.4 µM
  up-regulation: < 10%
HSP70; high dose (five times the IC50) 53.5 µM, low dose (half the IC50) 5.4 µM
  up-regulation: < 10%

## O=C(NCc1cccnc1)c1coc(=O)c(Br)c1
[1]; HSP90, high dose (five times the IC50) 17.5 µM, low dose (half the IC50) 1.8 µM
  up-regulation: < 10%
HSP70; high dose (five times the IC50) 17.5 µM, low dose (half the IC50) 1.8 µM
  up-regulation: < 10%

## COc1ccc(NC(=O)c2ccc(NC(=O)c3coc(=O)c(Br)c3)cc2)cc1
[1]; HSP90, high dose (five times the IC50) 60.5 µM, low dose (half the IC50) 6.1 µM
  up-regulation: < 10%
HSP70; high dose (five times the IC50) 60.5 µM, low dose (half the IC50) 6.1 µM
  up-regulation: < 10%

## COC(=O)c1ccc2nc(NC(=O)C3CC3)sc2c1
[1]; HSP90, high dose (five times the IC50) 246 µM, low dose (half the IC50) 24.6 µM
  up-regulation: < 10%
HSP70; high dose (five times the IC50) 246 µM, low dose (half the IC50) 24.6 µM
  up-regulation: < 10%

## CCOc1ccc(-c2nc(CN3CCCCC3CCn3cccn3)c(C)o2)cc1 (configuration not stated)
[1]; HSP90, high dose (five times the IC50) 111 µM, low dose (half the IC50) 11.1 µM
  up-regulation: < 10%
HSP70; high dose (five times the IC50) 111 µM, low dose (half the IC50) 11.1 µM
  up-regulation: < 10%

## COc1ccc(NC(=O)c2coc(=O)c(Br)c2)cc1
[1]; HSP90, high dose (five times the IC50) 12 µM, low dose (half the IC50) 1.2 µM
  up-regulation: < 10%
HSP70; high dose (five times the IC50) 12 µM, low dose (half the IC50) 1.2 µM
  up-regulation: < 10%

## CCCCCCCCOc1ccc(NC(=O)c2coc(=O)c(Br)c2)cc1
[1]; HSP90, high dose (five times the IC50) 64.5 µM, low dose (half the IC50) 6.5 µM
  up-regulation: < 50% (inactive)
HSP70; high dose (five times the IC50) 64.5 µM, low dose (half the IC50) 6.5 µM
  up-regulation: < 10%

## O=C(Nc1ccc(F)cc1)c1coc(=O)c(Br)c1
[1]; HSP90, high dose (five times the IC50) 17 µM, low dose (half the IC50) 1.7 µM
  up-regulation: < 10%
HSP70; high dose (five times the IC50) 17 µM, low dose (half the IC50) 1.7 µM
  up-regulation: < 10%

## CC(C)CNC(=O)c1coc(=O)c(Br)c1
[1]; HSP90, high dose (five times the IC50) 37.5 µM, low dose (half the IC50) 3.8 µM
  up-regulation: < 10%
HSP70; high dose (five times the IC50) 37.5 µM, low dose (half the IC50) 3.8 µM
  up-regulation: < 10%

## O=C(NCCc1ccc(F)cc1)c1coc(=O)c(Br)c1
[1]; HSP90, high dose (five times the IC50) 10.5 µM, low dose (half the IC50) 1.1 µM
  up-regulation: < 10%
HSP70; high dose (five times the IC50) 10.5 µM, low dose (half the IC50) 1.1 µM
  up-regulation: < 10%

## Cc1cccc(NC(=O)c2coc(=O)c(Br)c2)n1
[1]; HSP90, high dose (five times the IC50) 136.5 µM, low dose (half the IC50) 13.7 µM
  up-regulation: < 50% (inactive)
HSP70; high dose (five times the IC50) 136.5 µM, low dose (half the IC50) 13.7 µM
  up-regulation: < 10%

## Cc1cc(NC(=O)c2coc(=O)c(Br)c2)ccc1C(C)C
[1]; HSP90, high dose (five times the IC50) 44.5 µM, low dose (half the IC50) 4.5 µM
  up-regulation: < 10%
HSP70; high dose (five times the IC50) 44.5 µM, low dose (half the IC50) 4.5 µM
  up-regulation: < 10%

## O=C(NCc1ccco1)c1coc(=O)c(Br)c1
[1]; HSP90, high dose (five times the IC50) 24 µM, low dose (half the IC50) 2.4 µM
  up-regulation: < 10%
HSP70; high dose (five times the IC50) 24 µM, low dose (half the IC50) 2.4 µM
  up-regulation: < 10%

## CCCCOc1cccc(NC(=O)c2coc(=O)c(Br)c2)c1
[1]; HSP90, high dose (five times the IC50) 114 µM, low dose (half the IC50) 11.4 µM
  up-regulation: < 50% (inactive)
HSP70; high dose (five times the IC50) 114 µM, low dose (half the IC50) 11.4 µM
  up-regulation: < 10%

## O=C(Nc1ccccc1I)c1coc(=O)c(Br)c1
[1]; HSP90, high dose (five times the IC50) 147 µM, low dose (half the IC50) 14.7 µM
  up-regulation: < 10%
HSP70; high dose (five times the IC50) 147 µM, low dose (half the IC50) 14.7 µM
  up-regulation: < 10%

## CC(NC(=O)c1coc(=O)c(Br)c1)C1C2CCC3CC(C2)CC31 (configuration not stated)
[1]; HSP90, high dose (five times the IC50) 9 µM, low dose (half the IC50) 0.9 µM
  up-regulation: < 10%
HSP70; high dose (five times the IC50) 9 µM, low dose (half the IC50) 0.9 µM
  up-regulation: < 10%
